# From patent US20250000801A1, “DAROLUTAMIDE PHARMACEUTICAL COMPOSITION, PREPARATION METHOD THEREFOR AND USE THEREOF” (Sinotherapeutics Inc., priority 2021, published 2025)
# Like-named read-outs stand apart in the source and are kept apart here.
# Legend:
# [1] = Determination of dissolution, USP II method (paddle method); assay type: physicochemical; conditions: phosphate buffer pH 6.8, 1000 ml, 75 rpm
# Experimental: In the following examples, the dissolution of the formulation is determined using the USP II method (paddle method) in the US Pharmacopoeia, with specific parameters as follows.
# According to the above procedures, the dissolutions of Darolutamide in phosphate buffer, pH 6.8 were determined and the results were shown in Table 9.
# [2] = cited from earlier work
# [3] = cited from earlier work; remark: listed apart in the source
# [4] = test system: non-metastatic castration-resistant prostate cancer (nmCRPC); conditions: Phase III, cited from earlier work
# physchem = conditions: 37.2 °C, pH 6.8, aqueous buffer, thermodynamic from solid
# Experimental: About 200 mg of sample is weighted into a 50 ml shaking flask and then 50 ml of medium with pH of 6.8 is added. The shaking flask is mixed well and placed in a shaker. The shaker temperature is set as 37.2° C. and the rotation speed is set as 50 rpm. The sample is taken at 4 hours and 0.45 μM filter membrane is used for filtration to collect filtrate. High-performance liquid chromatography is used for determination with wavelength at 286 nm.
# [5] = single dose pharmacokinetic study
compound,measurement,setting,value
"CC(O)c1cc(C(=O)N[C@@H](C)Cn2ccc(-c3ccc(C#N)c(Cl)c3)n2)n[nH]1 (stereo partly drawn) [Darolutamide, N-[(1S)-2-[3-(3-chloro-4-cyanophenyl)-1H-pyrazol-1-yl]-1-methylethyl]-5-(1-hydroxyethyl)-1H-pyrazole-3-carboxamide]",Dissolution,[1]; 5 min,7%
same,Dissolution,[1]; 15 min,10%
same,Dissolution,[1]; 30 min,9%
same,Dissolution,[1]; 45 min,12%
same,BCS classification,[2]; low solubility and high permeability,BCS Class II
same,solubility in aqueous media,[2]; pH 1-6.8,14 to 23 µg/mL
same,bioavailability,"[3]; 300 mg, fasting state",about 30%
same,coefficient of variation (CV %) of AUC(0-4),[3]; administration dosage of 300 mg,69.6%
same,coefficient of variation (CV %) of AUC(0-4),[3]; administration dosage of 600 mg,41.4%
same,increase of AUC(0-4) in feeding state,[3]; after administration of 300 mg or 600 mg,2.5 fold
same,increase of bioavailability in feeding state,[3]; single dose administration of 300 mg,2.5 fold
same,increase of bioavailability in feeding state,[3]; single dose administration of 600 mg,2.8 fold
same,end half-life,[3]; [5],10 to 15 h
same,median Tmax,[3]; [5],3 to 6 h
same,reduction of the risk of disease metastasis or death,[4]; Darolutamide combined with ADT vs placebo combined with ADT,59%
same,median metastasis free survival (MFS),[4]; Darolutamide combined with ADT,40.4 months
same,solubility at 4 h,physchem,24.9 µg/mL
